Results on 14 compounds are retold here after ChEMBL document CHEMBL2331454, “Synthesis and structure-activity relationship studies of novel dual inhibitors of soluble epoxide hydrolase and 5-lipoxygenase” (J Med Chem, 2013).

SMILES strings stand for the structures.

In this experiment the target is Soluble epoxide hydrolase (Homo sapiens). The experiment in a line: Inhibition of human recombinant soluble epoxide hydrolase expressed in Escherichia coli after 30 mins by PHOME-based fluorescence assay.
As for `COc1cc(-c2nc3ccc(C)cn3c2NC2CCCCC2)ccc1OCCCNC(=O)Nc1ccc(C(F)(F)F)cc1`, the IC50 (commonly the point on the concentration scale where inhibition reaches its midpoint) is 439 nM.
For the compound `COc1cc(-c2nc3ccc(C)cn3c2NC2CCCC2)ccc1OCCCNC(=O)Nc1ccc(OC(F)(F)F)cc1`, the IC50 was determined as 473 nM.
The value for `COc1cc(-c2nc3ccc(F)cn3c2NC2CCCCC2)ccc1OCCCNC(=O)Nc1ccc(OC(F)(F)F)cc1` was 696 nM; that for `COc1cc(-c2nc3ccc(C)cn3c2NC(C)C)ccc1OCCCNC(=O)Nc1ccc(C(F)(F)F)cc1` was 620 nM; that for `COc1cc(-c2nc3ccc(C)cn3c2NC2CCCCC2)ccc1OCCCNC(=O)NC1CCCCC1` was 190 nM.
The result for `COc1cc(-c2nc3ccc(C)cn3c2NC2CCCC2)ccc1OCCCNC(=O)Nc1ccc(C(F)(F)F)cc1` reads 614 nM; that for `COc1cc(-c2nc3ccc(C)cn3c2NC2CCCCC2)ccc1OCCCNC(=O)Nc1ccc(OC(F)(F)F)cc1`, 116 nM; that for `COc1ccc(-c2nc3ccc(C)cn3c2NC2CCCCC2)cc1OCCCNC(=O)Nc1ccc(OC(F)(F)F)cc1`, 1110 nM.
The value for `COc1cc(-c2nc3ccc(F)cn3c2NC2CCCCC2)ccc1OCCCNC(=O)Nc1ccc(C(F)(F)F)cc1` was 649 nM; that for `COc1cc(-c2nc3ccc(F)cn3c2NC2CCCC2)ccc1OCCCNC(=O)Nc1ccc(C(F)(F)F)cc1` was 480 nM.
As for `O=C(Nc1ccc(Cl)cc1)N1CCC(CO)CC1`, the half-inhibitory concentration (IC50) came to 2240 nM.
As to `COc1cc(-c2nc3ccc(Cl)cn3c2NC(C)C)ccc1OCCCNC(=O)Nc1ccc(C(F)(F)F)cc1`, the IC50 was 439 nM.
The value for `COc1cc(-c2nc3ccc(Cl)cn3c2NC2CCCCC2)ccc1OCCCNC(=O)Nc1ccc(C(F)(F)F)cc1` was 336 nM; that for `Cc1ccc2nc(-c3ccc(OCCCNC(=O)Nc4ccc(C(F)(F)F)cc4)c(Cl)c3)c(NC3CCCCC3)n2c1` was 192 nM.
